The values that follow come from patent US12350270B2, “Antimalarial agents” (Merck Sharp & Dohme LLC, priority 2019, dated 2025).

The assay concerns parasites (ring stage, in human red blood cell culture). Put plainly: Parasite LDH growth assay (antiparasite potency, Parasite Assay). Type of assay: cell-based, Plasmodium falciparum. Particulars: Plasmodium falciparum, Erythrocyte, 72 h, 0.7% rings, 2% haematocrit, 72 hours at 37° C., LDH readout of parasite growth. Put shortly: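 Growth was read by an LDH assay after a freeze–thaw cycle (−80 °C overnight, 4 h thaw at RT). Before that, parasites grew with compound for 72 h at 37 °C under gassed, humidified conditions. The input was a ring-stage culture adjusted to 0.7% parasitemia and 2% haematocrit in serum (5%)/albumax (0.5%)-supplemented RPMI-Hepes.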

The structures appear in SMILES notation.

In the case of `CC1(C)CC(=O)N([C@@H]2CCS(=O)(=O)c3ccc(C(=O)N[C@H]4CC(C)(C)Oc5ccccc54)cc32)C(=N)N1` [Example 220, (4R)-N-[(4S)-2,2-dimethylchroman-4-yl]-4-(2-imino-4,4-dimethyl-6-oxo-hexahydropyrimidin-1-yl)-1,1-dioxo-3,4-dihydro-2H-thiochromene-6-carboxamide], the EC50 (usually the concentration needed to bring the measured effect to its halfway point) is 2.9 nM.

Compound `CC1(C)CC(=O)N([C@H]2CCS(=O)(=O)c3ccc(C(=O)N[C@H]4CC(C)(C)Oc5ccccc54)cc32)C(=N)N1` [Example 221, (4S)-N-[(4S)-2,2-dimethylchroman-4-yl]-4-(2-imino-4,4-dimethyl-6-oxo-hexahydropyrimidin-1-yl)-1,1-dioxo-3,4-dihydro-2H-thiochromene-6-carboxamide] showed an EC50 of 190 nM.

Compound `CCC1(CC)CC(=O)N([C@@H]2CCS(=O)(=O)c3ccc(C(=O)N[C@@H]4c5ccccc5C[C@H]4O)cc32)C(=N)N1` [Example 222, (4R)-4-(4,4-diethyl-2-imino-6-oxo-hexahydropyrimidin-1-yl)-N-[(1R,2R)-2-hydroxyindan-1-yl]-1,1-dioxo-3,4-dihydro-2H-thiochromene-6-carboxamide] had an EC50 of 15.6 nM.

Turning to `CCC1(CC)CC(=O)N([C@H]2CCS(=O)(=O)c3ccc(C(=O)N[C@@H]4c5ccccc5C[C@H]4O)cc32)C(=N)N1` [Example 223, (4S)-4-(4,4-diethyl-2-imino-6-oxo-hexahydropyrimidin-1-yl)-N-[(1R,2R)-2-hydroxyindan-1-yl]-1,1-dioxo-3,4-dihydro-2H-thiochromene-6-carboxamide], the EC50 turned out to be 300 nM.

As for `CC[C@]1(C)CC(=O)N([C@@H]2CCOc3ccc(C(=O)N[C@@H]4c5cc(F)ccc5OC(C)(C)[C@H]4O)cc32)C(=N)N1` [Example 224, (4R)-4-[(4R)-4-ethyl-2-imino-4-methyl-6-oxo-hexahydropyrimidin-1-yl]-N-[(3S,4R)-6-fluoro-3-hydroxy-2,2-dimethyl-chroman-4-yl]chromane-6-carboxamide], the response was half-maximal at 0.3 nM (EC50).

Regarding `CC[C@@]1(C)CC(=O)N([C@@H]2CCOc3ccc(C(=O)N[C@@H]4c5cc(F)ccc5OC(C)(C)[C@H]4O)cc32)C(=N)N1` [Example 225, (4R)-4-[(4S)-4-ethyl-2-imino-4-methyl-6-oxo-hexahydropyrimidin-1-yl]-N-[(3S,4R)-6-fluoro-3-hydroxy-2,2-dimethyl-chroman-4-yl]chromane-6-carboxamide], the EC50 worked out at 0.8 nM.

Turning to `CCC1(CC)CC(=O)N([C@@H]2CCOc3ccc(C(=O)NC4c5ccccc5C(F)(F)C4(C)C)cc32)C(=N)N1` (stereo partly drawn) [Example 227, (4R)-4-(4,4-diethyl-2-imino-6-oxo-hexahydropyrimidin-1-yl)-N-(3,3-difluoro-2,2-dimethyl-indan-1-yl)chromane-6-carboxamide], the EC50 was found to be 1.3 nM.

`CC1(C)CC(=O)N(C2CCS(=O)(=O)c3ccc(C(=O)N[C@@H]4c5ccccc5OC[C@@]4(C)O)cc32)C(=N)N1` (stereo partly drawn) [Example 228, N-[(3S,4R)-3-hydroxy-3-methyl-chroman-4-yl]-4-(2-imino-4,4-dimethyl-6-oxo-hexahydropyrimidin-1-yl)-1,1-dioxo-3,4-dihydro-2H-thiochromene-6-carboxamide] displayed an EC50 of 282 nM.

The compound `CC1(C)CC(=O)N(C2CCS(=O)(=O)c3ccc(C(=O)N[C@@H]4c5ccccc5OC[C@]4(C)O)cc32)C(=N)N1` (stereo partly drawn) [Example 229, N-[(3R,4R)-3-hydroxy-3-methyl-chroman-4-yl]-4-(2-imino-4,4-dimethyl-6-oxo-hexahydropyrimidin-1-yl)-1,1-dioxo-3,4-dihydro-2H-thiochromene-6-carboxamide] showed an EC50 of 59.3 nM.

Regarding `CC[C@]1(C)CC(=O)N([C@@H]2CCOc3ccc(C(=O)N[C@@H]4c5cc(Cl)ccc5OC[C@@]4(C)O)cc32)C(=N)N1` [Example 230, (4R)-N-[(3S,4R)-6-chloro-3-hydroxy-3-methyl-chroman-4-yl]-4-[(4R)-4-ethyl-2-imino-4-methyl-6-oxo-hexahydropyimidin-1-yl]chromane-6-carboxamide], the EC50 turned out to be 2.7 nM.

Compound `CCC1(CC)CC(=O)N([C@@H]2CCOc3ccc(C(=O)N[C@@H]4c5cc(Cl)ccc5OC[C@H]4O)cc32)C(=N)N1` [Example 231, (4R)-N-[(3S,4R)-6-chloro-3-hydroxy-chroman-4-yl]-4-(4,4-diethyl-2-imino-6-oxo-hexahydropyrimidin-1-yl)chromane-6-carboxamide] showed an EC50 of 7.4 nM.

With `CC[C@]1(C)CC(=O)N([C@H]2c3cc(C(=O)N[C@@H]4c5ccccc5C(F)(F)[C@H]4O)ccc3OC[C@@H]2OC)C(=N)N1` [Example 232, (3R,4S)-N-[(1R,2S)-3,3-difluoro-2-hydroxy-indan-1-yl]-4-[(4R)-4-ethyl-2-imino-4-methyl-6-oxo-hexahydropyrimidin-1-yl]-3-methoxy-chromane-6-carboxamide], a half-maximal response (EC50) required 21.8 nM.

As to `CCC1(CC)CC(=O)N([C@@H]2CCOc3ccc(C(=O)NC(CC4CCCCC4)c4ccccc4)cc32)C(=N)N1` (stereo partly drawn) [Example 233, (4R)-N-(2-cyclohexyl-1-phenyl-ethyl)-4-(4,4-diethyl-2-imino-6-oxo-hexahydropyrimidin-1-yl)chromane-6-carboxamide], the EC50 was determined as 7.9 nM.

Take `CCC1(CC)CC(=O)N([C@H]2c3cc(C(=O)N[C@@H]4c5ccccc5C[C@@]4(C)O)ccc3OC[C@H]2COC)C(=N)N1` [Example 235, (3R,4R)-4-(4,4-diethyl-2-imino-6-oxo-hexahydropyrimidin-1-yl)-N-[(1R,2R)-2-hydroxy-2-methyl-indan-1-yl]-3-(methoxymethyl)chromane-6-carboxamide]: the EC50 came out at 0.7 nM.

`CCC1(CC)CC(=O)N([C@@H]2C[C@@H](OC)c3ccc(C(=O)N[C@@H]4c5ccccc5OC(C)(C)[C@H]4O)cc32)C(=N)N1` [Example 236, (1R,3R)-3-(4,4-diethyl-2-imino-6-oxo-hexahydropyrimidin-1-yl)-N-[(3S,4R)-3-hydroxy-2,2-dimethyl-chroman-4-yl]-1-methoxy-indane-5-carboxamide]: a half-maximal effect (EC50) was put at 0.9 nM.

As for `CCC1(CC)CC(=O)N([C@H]2C[C@H](OC)c3ccc(C(=O)N[C@@H]4c5ccccc5OC(C)(C)[C@H]4O)cc32)C(=N)N1` [Example 237, (1S,3S)-3-(4,4-diethyl-2-imino-6-oxo-hexahydropyrimidin-1-yl)-N-[(3S,4R)-3-hydroxy-2,2-dimethyl-chroman-4-yl]-1-methoxy-indane-5-carboxamide], the EC50 was determined as 240 nM.

Regarding `CCC1(CC)CC(=O)N([C@H]2C[C@@H](OC)c3ccc(C(=O)N[C@@H]4c5ccccc5OC(C)(C)[C@H]4O)cc32)C(=N)N1` [Example 238, (1R,3S)-3-(4,4-diethyl-2-imino-6-oxo-hexahydropyrimidin-1-yl)-N-[(3S,4R)-3-hydroxy-2,2-dimethyl-chroman-4-yl]-1-methoxy-indane-5-carboxamide], the EC50 came to 47.8 nM.

Take `CCC1(CC)CC(=O)N([C@@H]2C[C@H](OC)c3ccc(C(=O)N[C@@H]4c5ccccc5OC(C)(C)[C@H]4O)cc32)C(=N)N1` [Example 239, (1S,3R)-3-(4,4-diethyl-2-imino-6-oxo-hexahydropyrimidin-1-yl)-N-[(3S,4R)-3-hydroxy-2,2-dimethyl-chroman-4-yl]-1-methoxy-indane-5-carboxamide]: the EC50 came to 0.9 nM.
